Assay results taken from US8067395B2, “Inhibitors of tyrosine kinases and uses thereof” (Pharmacyclics, Inc., priority 2006, dated 2011).

The compounds below were run against Btk (Homo sapiens, UniProt Q06187) (assay: Btk TR-FRET kinase inhibition assay). Conditions: pH 7.4, ATP at the Km for the kinase, 1 μM peptide substrate, [Btk]total=0.5 nM, read-out: Btk-TRFRET (Ki).
Sequence of Btk (Q06187 whole entry): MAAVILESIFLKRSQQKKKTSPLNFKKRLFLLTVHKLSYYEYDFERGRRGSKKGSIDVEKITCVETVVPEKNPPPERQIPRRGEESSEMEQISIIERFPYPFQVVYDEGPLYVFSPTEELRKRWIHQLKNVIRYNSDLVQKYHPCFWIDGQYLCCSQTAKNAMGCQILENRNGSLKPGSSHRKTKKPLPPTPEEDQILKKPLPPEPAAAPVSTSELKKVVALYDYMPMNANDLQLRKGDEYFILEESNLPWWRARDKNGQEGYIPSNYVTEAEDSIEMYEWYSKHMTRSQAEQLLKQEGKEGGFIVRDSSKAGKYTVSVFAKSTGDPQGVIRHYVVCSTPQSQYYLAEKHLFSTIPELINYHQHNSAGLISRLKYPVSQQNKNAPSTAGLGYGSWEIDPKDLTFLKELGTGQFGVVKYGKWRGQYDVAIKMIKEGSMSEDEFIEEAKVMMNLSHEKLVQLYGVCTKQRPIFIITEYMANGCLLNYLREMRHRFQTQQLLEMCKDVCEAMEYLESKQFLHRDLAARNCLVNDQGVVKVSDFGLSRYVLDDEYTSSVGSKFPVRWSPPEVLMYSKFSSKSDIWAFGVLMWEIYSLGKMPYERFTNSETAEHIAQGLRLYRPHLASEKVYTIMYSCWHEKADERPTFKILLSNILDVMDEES
Assay type: biochemical
With `Cc1c(C=NNC(=O)c2ccc(N(C)C)cc2)[nH]c(=O)c2c1ccc1nc(Nc3c(Cl)cccc3Cl)n(C)c12` [Compound 46, 4-(N,N-dimethylamino)-benzoic acid [2-(2,6-dichlorophenylamino)-1,6-dimethyl-9-oxo-8,9-dihydro-1H-imidazo[4,5-h]isoquinolin-7-ylmethylene]-hydrazide] the Ki was greater than 1000 nM. Compound `Cc1c(C=NNC(=O)c2ccccn2)[nH]c(=O)c2c1ccc1nc(Nc3c(Cl)cccc3Cl)n(C)c12` [Compound 47, pyridine-2-carboxylic acid [2-(2,6-dichlorophenylamino)-1,6-dimethyl-9-oxo-8,9-dihydro-1H-imidazo[4,5-h]isoquinolin-7-ylmethylene]-hydrazide] has a Ki of 100 to 1000 nM. `Cc1c(C=NNC(=O)c2cccnc2)[nH]c(=O)c2c1ccc1nc(Nc3c(Cl)cccc3Cl)n(C)c12` [Compound 48, pyridine-3-carboxylic acid [2-(2,6-dichlorophenylamino)-1,6-dimethyl-9-oxo-8,9-dihydro-1H-imidazo[4,5-h]isoquinolin-7-ylmethylene]-hydrazide] gave a Ki of 100 to 1000 nM. Work on `COc1ccccc1C(=O)NN=Cc1[nH]c(=O)c2c(ccc3nc(Nc4c(Cl)cccc4Cl)n(C)c32)c1C` [Compound 49, 2-methoxy-benzoic acid [2-(2,6-dichlorophenylamino)-1,6-dimethyl-9-oxo-8,9-dihydro-1H-imidazo[4,5-h]isoquinolin-7-ylmethylene]-hydrazide] yielded a Ki of 100 to 1000 nM. `Cc1cc(F)ccc1Nc1nc2ccc3c(CC(=O)N4CCP(=O)(c5ccc(F)cc5)CC4)c(C)[nH]c(=O)c3c2n1C` [Compound 50, 2-(4-fluoro-2-methylphenylamino)-1,7-dimethyl-6-{2-[4-(4-fluorophenyl)-4-oxo-4λ^5[1,4]azaphosphinan-1-yl]-2-oxoethyl}-1,8-dihydro-imidazo[4,5-h]isoquinolin-9-one] was tested, and the Ki was 100 to 1000 nM. For `CCC[C@@H](C=CS(=O)(=O)c1ccccc1)NC(=O)Cc1c(C)[nH]c(=O)c2c1ccc1nc(Nc3ccc(F)cc3C)n(C)c12` [Compound 51, (S)-2-(4-fluoro-2-methylphenylamino)-1,7-dimethyl-6-{N-[1-(phenylsulfonyl)hex-1-en-3-yl]-amino-2-oxoethyl}-1,8-dihydro-imidazo[4,5-h]isoquinolin-9-one], the Ki was 100 to 1000 nM.
